Laboratory results as given in PubChem BioAssay AID248 (DTP/NCI, 2004).
“And” between values parts separate entries of the source, which are not always exact repeats. Equal values may be shown once. Inconclusive results and toxic doses are left out. Rule as the data show it: active = T/C of 150% or more; inactive = T/C below 125%.

Tested on: L1210 leukemia ip in BDF1 mice, survival T/C
Assay: NCI In Vivo Anticancer Drug Screen. Data for tumor model L1210 Leukemia (intraperitoneal) in B6D2F1 (BDF1) mice
Conditions: endpoint: mean survival time, higher = longer survival
Procedure, shortened: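 Read-out is survival time, reported as the treated-group measurement over the vehicle-control measurement.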

[1] = dose: 25.0 mg/kg/injection, schedule: Q01DX009 (ip), vehicle: Klucel (hydroxypropylcellulose) (HPC)
[2] = dose: 50.0 mg/kg/injection, schedule: Q01DX009 (ip), vehicle: Klucel (hydroxypropylcellulose) (HPC)
[3] = dose: 100.0 mg/kg/injection, schedule: Q04DX002 (ip), vehicle: Klucel (hydroxypropylcellulose) (HPC)
[4] = dose: 50.0 mg/kg/injection, schedule: Q01DX009 (ip), vehicle: saline
[5] = dose: 100.0 mg/kg/injection, schedule: Q04DX003 (ip), vehicle: Klucel (hydroxypropylcellulose) (HPC)

Measured: T/C

NC(=S)N/N=C(\c1ccccc1)c1cccc2ccccc12
inactive: [1] 91 % of control | [2] 91 % of control | [3] 93 % of control

Cn1c(=O)c2c(ncn2C)n(C)c1=O
inactive: dose: 25.0 mg/kg/injection, schedule: Q01DX Z (ip), vehicle: saline 92 % of control | dose: 50.0 mg/kg/injection, schedule: Q01DX Z (ip), vehicle: saline 90 % of control | dose: 100.0 mg/kg/injection, schedule: Q01DX009 (ip), vehicle: saline with Tween-80 93 % of control | dose: 100.0 mg/kg/injection, schedule: Q01DX Z (ip), vehicle: saline 92 % of control | dose: 115.0 mg/kg/injection, schedule: Q01DX001 (ip), vehicle: saline 97 % of control | dose: 175.0 mg/kg/injection, schedule: Q01DX001 (ip), vehicle: saline 111 % of control | dose: 200.0 mg/kg/injection, schedule: Q01DX009 (ip), vehicle: saline with Tween-80 95 % of control | dose: 200.0 mg/kg/injection, schedule: Q01DX Z (ip), vehicle: saline 90 % of control | dose: 265.0 mg/kg/injection, schedule: Q01DX001 (ip), vehicle: saline 103 % of control

COc1cccc(CNC(C)(CO)CO)c1OC
inactive: dose: 50.0 mg/kg/injection, schedule: Q01DX001 (ip), vehicle: saline 98 % of control | dose: 100.0 mg/kg/injection, schedule: Q01DX001 (ip), vehicle: saline 104 % of control | dose: 200.0 mg/kg/injection, schedule: Q01DX001 (ip), vehicle: saline 102 % of control

C1CCc2nnnn2CC1
inactive: dose: 6.25 mg/kg/injection, schedule: Q01DX009 (ip), vehicle: saline 111 % of control | dose: 12.5 mg/kg/injection, schedule: Q01DX009 (ip), vehicle: saline 101 % of control and 97 % of control | dose: 12.5 mg/kg/injection, schedule: Q04DX003 (ip), vehicle: saline 103 % of control | dose: 25.0 mg/kg/injection, schedule: Q01DX009 (ip), vehicle: saline 109 % of control and 90 % of control | dose: 25.0 mg/kg/injection, schedule: Q04DX003 (ip), vehicle: saline 101 % of control | [4] 96 % of control | dose: 50.0 mg/kg/injection, schedule: Q04DX003 (ip), vehicle: saline 95 % of control and 106 % of control

NNP(=O)(Oc1ccccc1)Oc1ccccc1
inactive: [4] 108 % of control | dose: 75.0 mg/kg/injection, schedule: Q01DX001 (ip), vehicle: acetone 110 % of control | dose: 100.0 mg/kg/injection, schedule: Q01DX009 (ip), vehicle: saline 124 % of control | dose: 150.0 mg/kg/injection, schedule: Q01DX001 (ip), vehicle: acetone 103 % of control | dose: 300.0 mg/kg/injection, schedule: Q01DX001 (ip), vehicle: acetone 97 % of control

CCOc1ccc(/C=C2\N=C(c3ccccc3)OC2=O)cc1
inactive: dose: 100.0 mg/kg/injection, schedule: Q01DX009 (ip), vehicle: Klucel (hydroxypropylcellulose) (HPC) 98 % of control | [5] 100 % of control | dose: 200.0 mg/kg/injection, schedule: Q01DX009 (ip), vehicle: Klucel (hydroxypropylcellulose) (HPC) 88 % of control | dose: 200.0 mg/kg/injection, schedule: Q04DX003 (ip), vehicle: Klucel (hydroxypropylcellulose) (HPC) 100 % of control | dose: 400.0 mg/kg/injection, schedule: Q01DX009 (ip), vehicle: Klucel (hydroxypropylcellulose) (HPC) 93 % of control | dose: 400.0 mg/kg/injection, schedule: Q04DX003 (ip), vehicle: Klucel (hydroxypropylcellulose) (HPC) 98 % of control

CC(C)OC(=O)NN1CCCCCC1
inactive: [3] 92 % of control | dose: 200.0 mg/kg/injection, schedule: Q04DX002 (ip), vehicle: Klucel (hydroxypropylcellulose) (HPC) 105 % of control | dose: 400.0 mg/kg/injection, schedule: Q04DX002 (ip), vehicle: Klucel (hydroxypropylcellulose) (HPC) 96 % of control

Clc1c(CI)ccc(CI)c1Cl
inactive: dose: 6.25 mg/kg/injection, schedule: Q01DX009 (ip), vehicle: saline with Tween-80 100 % of control | dose: 12.5 mg/kg/injection, schedule: Q01DX009 (ip), vehicle: saline with Tween-80 92 % of control | [1] 93 % of control | dose: 25.0 mg/kg/injection, schedule: Q01DX009 (ip), vehicle: saline with Tween-80 92 % of control | [2] 108 % of control | dose: 50.0 mg/kg/injection, schedule: Q01DX009 (ip), vehicle: saline with Tween-80 89 % of control | [5] 89 % of control
